Source: patent US8829006B2, “Compounds” (Boehringer Ingelheim International GmbH, priority 2007, dated 2014)

What follows are compounds tested against T1, human CGRP receptor (Homo sapiens, UniProt O60894+Q16602) (assay: Binding studies with SK-N-MC cells (expressing the human CGRP receptor)). Conditions: SK-N-MC membranes, 50 pM 125I-iodotyrosyl-CGRP, 180 minutes at ambient temperature.
T1 construct: SK-N-MC membranes (˜20 μg protein) are incubated for 180 minutes at ambient temperature; endogenous in cells; host or cells: SK-N-MC cells (membranes)
T1 sequence (Q16602 23-461): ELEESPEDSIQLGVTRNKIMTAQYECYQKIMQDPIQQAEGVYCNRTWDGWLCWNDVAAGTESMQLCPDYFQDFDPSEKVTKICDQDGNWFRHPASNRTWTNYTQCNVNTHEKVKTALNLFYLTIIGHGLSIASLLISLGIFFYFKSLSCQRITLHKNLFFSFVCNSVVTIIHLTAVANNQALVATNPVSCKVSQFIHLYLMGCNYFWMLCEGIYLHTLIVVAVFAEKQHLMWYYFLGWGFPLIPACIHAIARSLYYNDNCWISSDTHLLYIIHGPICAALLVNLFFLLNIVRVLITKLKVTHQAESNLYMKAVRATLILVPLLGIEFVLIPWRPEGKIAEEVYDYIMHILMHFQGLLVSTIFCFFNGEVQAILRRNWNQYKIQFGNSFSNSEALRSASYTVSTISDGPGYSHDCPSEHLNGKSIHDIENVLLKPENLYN
T1 sequence (O60894 27-148): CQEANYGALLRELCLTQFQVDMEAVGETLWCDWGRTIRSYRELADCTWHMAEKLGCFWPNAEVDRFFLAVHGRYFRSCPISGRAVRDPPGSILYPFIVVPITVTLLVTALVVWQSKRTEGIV
Experimental: A. Binding Studies with SK-N-MC Cells (Expressing the Human CGRP Receptor)
SK-N-MC membranes (˜20 μg protein) are incubated for 180 minutes at ambient temperature with 50 pM ^125I-iodotyrosyl-Calcitonin-Gene-Related Peptide and increasing concentrations of the test substances in a total volume of 250 μl (assay buffer: 10 mM tris, 50 mM NaCl, 5 mM MgCl2, 1 mM EDTA, pH=7.4). The incubation is ended by rapid filtration through GF/B-glass fibre filters treated with polyethyleneimine (0.1%) using a cell harvester. The protein-bound radioactivity is measured using a gamma counter. Non-specific binding is defined as the bound radioactivity after the presence of 1 μM BIBN4096BS during incubation.
The concentration binding curves are analysed using computer-aided non-linear curve fitting.
Compound COc1ccc2c(c1)CCN(C1CCN(c3cc(C(=O)N4Cc5cn[nH]c5C(C)(C)C4)ncn3)CC1)C(=O)N2 [(8)] has a Ki of 4 nM.
In the case of O=C(c1cc(N2CCC(n3c(=O)[nH]c4ncccc43)CC2)ncn1)N1CCC2CCCCC21 (stereo not drawn) [(11)], the Ki is reported as 34 nM.
O=C(c1cc(N2CCC(n3nc(-c4ccccc4)[nH]c3=O)CC2)ncn1)N1CCc2ccccc21 [(15)] was tested, and the Ki was 21 nM.
O=C(c1cc(N2CCC(n3c(=O)[nH]c4ncccc43)CC2)ncn1)N1Cc2ccccc2C1 [(17)] gave a Ki of 117 nM.
Work on O=C(c1cc(N2CCC(n3c(=O)[nH]c4ncccc43)CC2)ncn1)N1CCc2cc(F)ccc21 [(36)] yielded a Ki of 5 nM.
Work on CC1(C)CN(C(=O)c2cc(N3CCC(n4c(=O)[nH]c5ncccc54)CC3)ncn2)c2ccc(F)cc21 [(37)] yielded a Ki of 2 nM.
O=C(c1cc(N2CCC(n3c(=O)[nH]c4ncccc43)CC2)ncn1)N1CC(CCCN2CCCC2)c2ccccc21 (stereo not drawn) [(41)] was tested, and the Ki was 21 nM.
Work on CC1(C)CCN(C(=O)c2cc(N3CCC(n4c(=O)[nH]c5ncccc54)CC3)ncn2)C1 [(50)] yielded a Ki of 690 nM.
With CC1(C)CN(C(=O)c2cc(N3CCC(n4c(=O)[nH]c5ncccc54)CC3)ncn2)Cc2ccccc21 [(55)] the Ki was 3 nM.
